# Read-outs that look alike come from different tables or passages of the source.
# Key:
# [1] = Single-dose pharmacokinetics in female FVB mice; type: in vivo, mouse; settings: for Kp at 4 h: read-out: Brain to Plasma concentration ratio at 4 h
# Procedure: Pharmacokinetics of SRI-011381 after single intravenous, intraperitoneal, or oral administration in female FVB mice: The objective of this study was to determine the single-dose pharmacokinetics of SRI-011381 in plasma and brain. Female FVB/NJ mice were administered the test article by intravenous (iv, 10 mg/kg), intraperitoneal (ip, 30 mg/kg), and oral gavage (po, 50 mg/kg) dose routes. The compound was formulated in 10% DMSO:15% Solutol:75% sterile water. Plasma and brain were collected at various time points up to 24 h and analyzed by LC/MS for determination of SRI-011381 levels. FIGS. 7A and 7B summarize SRI-011381 levels in plasma and brain, and Tables 4 and 5 list the results of the pharmacokinetic analysis.
# [2] = test system: B103 neuroblastoma cells; test: B103 live/dead cell assay with Aβ; type: cell-based, rat; settings: for cell survival, protection relative to TGF-β1: percentage of live cells / percentage of rescue
# Procedure: SRI-11381 is neuroprotective in vitro: To determine if the TGF-β-inducing capacity of SRI-011381 would translate into biologically beneficial effects, its neuroprotective potential was tested in B103 rat neuroblastoma cells and primary mouse neurons derived from E16 forebrains. B103 neuroblastoma cells were cultured in 24-well plates and exposed to an oligomeric preparation of Aβ together with compounds or recombinant TGF-β.
# FIGS. 3A-3H illustrate that SRI-011381 protects cultured neurons from Aβ toxicity. B103 neuroblastoma cells were incubated with Aβ for 24 h. The compounds and TGF-β were added 2 h before Aβ. Following incubations live and dead cells were assessed with calcein-acetoxymethylester (CAM) and SYTOX Orange (Invitrogen), respectively.
# B103 neuroblastoma cells: B103 neuroblastoma cells were cultured in Dulbecco's modified Eagle's medium containing 10% fetal calf serum and 1% v/v penicillin/streptomycin (Invitrogen) in a 5% CO2: 95% air atmosphere. 10^4 cells/well were seeded onto 24 well plates and cultured for 24 h before Aβ was added. The compounds and TGF-β were added 2 h before Aβ. Following a 24 h incubation with Aβ, live and dead cells were assessed using calcein-acetoxymethylester (CAM) and SYTOX Orange (Invitrogen), respectively. AM is a membrane-permeable, fluorogenic esterase substrate that is hydrolyzed intracellularly to a green fluorescent product (calcein) in live cells. SYTOX Orange is a high-affinity nucleic acid stain that easily penetrates cells with compromised plasma membranes and yet will not cross the membranes of live cells. After incubation with SYTOX Orange, the nucleic acids of dead cells fluoresce bright orange. […] Five fields were randomly selected from each well and the cell numbers were analyzed by ImageJ (NIH) in a blinded fashion.
# [3] = test system: hippocampal neurons; test: Aβ-induced neuritic dystrophy in primary hippocampal neurons; type: cell-based, mouse; settings: for average numbers of dystrophic neurites per neuron: 21-22 DIV
# Procedure: Primary hippocampal neurons isolated from E16 CF1 embryos were aged for 6-7 days or 21-22 days, then challenged with 5 μM oligomeric Aβ in the presence or absence of compounds, and assayed for neurotoxicity (cell survival as above) or neuritic dystrophy, respectively. For quantification of neuritic dystrophy, fixed cells were immune-stained with a MAP-2 monoclonal antibody to label dendrites.
# Primary hippocampal neurons were isolated from E16 CF1 embryos. Twenty-four-well culture plates were coated with 10 μg/ml poly-L-lysine. Cells were seeded overnight at a density of 30,000 cells/well in DMEM/F-12 medium supplemented with 10% FBS and penicillin/streptomycin, and subsequently maintained in Neurobasal medium containing 2% B27 supplement. Cells were aged for 6-7 days or 21-22 days, then challenged with 5 μM Aβ in the presence or absence of compounds, and assayed for neurotoxicity or neuritic dystrophy, respectively. Cells were treated for 72 h for neurotoxicity assay and 48 h for neuritic dystrophy assay. At the end of treatment, an equal volume of 4% PFA was added, plates incubated at room temperature for 15 min and then washed three times with DPBS. Cells were kept in the last wash of DPBS at 4° C. until being counted or stained.
# For quantification of neuritic dystrophy, fixed cells were immunostained with a MAP-2 monoclonal antibody (Sigma-Aldrich). […] MAP2 positive dendrites were observed under an inverted fluorescence microscope (Olympus). […] To quantify neurite curvature, an established method was modified for assessment of neurite curvature. Neurite tracks were digitized and approximated by a series of connected line segments using ImageJ (NIH). The angle of each segment was determined using a Sigmaplot macro, and the results were averaged to give the ‘mean differential curvature’. This parameter reflects the degree of neurite curvature with an increasing value indicating increased curvature. Neurite counting and quantification were performed in randomly selected fields (5 fields/well). All quantitative assessments were done by investigators blinded with respect to treatment conditions.
# [4] = test system: primary rat hepatocytes; test: Cytotoxicity in primary rat hepatocytes; type: cell-based; settings: 20 h
# Procedure: In Vitro Cytotoxicity: The cytotoxicity of SRI-011381 was determined in primary rat hepatocytes and in VERO cells.
# Rat hepatocytes were isolated by collagenase perfusion and allowed to form a monolayer overnight. The test compounds were added to the cells in 5 concentrations up to 250 μM. Cells were incubated with the test article for 20 h and then toxicity determined by the MTT cytotoxicity screen. Toxicity was evaluated against the vehicle control (DMSO) and a positive control, amitriptylin, was included with each experiment.
# [5] = female, FVB/NJ, mouse, brain, ip, 30 mg/kg
# [6] = female, FVB/NJ, mouse, brain, iv, 10 mg/kg
# [7] = female, FVB/NJ, mouse, brain, po, 50 mg/kg
# [8] = female, FVB/NJ, mouse, plasma, ip, 30 mg/kg
# [9] = female, FVB/NJ, mouse, plasma, iv, 10 mg/kg
# [10] = female, FVB/NJ, mouse, plasma, po, 50 mg/kg
smiles,measurement,setting,value
"O=C(NC1CCCCC1)N(Cc1ccccc1)CC1CCNCC1 [SRI-011381, 1-Benzyl-3-cyclohexyl-1-(piperidin-4-ylmethyl)urea]",Kp,"[1]; female, FVB/NJ, mouse, brain, intraperitoneal, time points after about 0.5 h (iv) and about 1.5 h (po and ip), read-out: brain-to-plasma concentration ratio",> 0.5
same,Cmax,[1]; [5],348 ± 33 ng/mL
same,Tmax,[1]; [5],15 min
same,Kp at 4 h,[1]; [5],1.65
same,Cmax,[1]; [6],231 ± 106 ng/mL
same,Tmax,[1]; [6],15 min
same,Kp at 4 h,[1]; [6],12.5
same,Cmax,[1]; [7],157 ± 16 ng/mL
same,Tmax,[1]; [7],60 min
same,Kp at 4 h,"[1]; female, FVB/NJ, mouse, brain, po, 50 mg/kg, p.o.",0.89
same,Kp,"[1]; female, FVB/NJ, mouse, brain/plasma, ip, 30 mg/kg, values at the brain T, read-out: Brain-to-plasma ratio",0.07
same,Kp,"[1]; female, FVB/NJ, mouse, brain/plasma, iv, 10 mg/kg, values at the brain T, read-out: Brain-to-plasma ratio",0.28
same,Kp,"[1]; female, FVB/NJ, mouse, brain/plasma, po, 50 mg/kg, values at the brain T, read-out: Brain-to-plasma ratio",0.19
same,clearance,"[1]; female, FVB/NJ, mouse, plasma, intraperitoneal, extravascular estimates (ip and po) based on F, read-out: Cl (converted)",~150 mL/min/kg
same,Vd,"[1]; female, FVB/NJ, mouse, plasma, intraperitoneal, extravascular estimates (ip and po) based on F, read-out: apparent volume of distribution V",8 to 13 L/kg
same,half-life,"[1]; female, FVB/NJ, mouse, plasma, intravenous, intraperitoneal, oral, read-out: elimination half-life",< 60 min
same,AUC(0-inf),[1]; [8],4160 ng·h/mL
same,AUC(0-t),[1]; [8],4110 ± 214 ng·h/mL
same,Cmax,[1]; [8],6810 ± 720 ng/mL
same,Tmax,[1]; [8],4.98 min
same,half-life,"[1]; female, FVB/NJ, mouse, plasma, ip, 30 mg/kg, read-out: t1/2 (converted)",35.4 min
same,AUC(0-inf),[1]; [9],1080 ng·h/mL
same,AUC(0-t),[1]; [9],1070 ± 129 ng·h/mL
same,Cmax,[1]; [9],1170 ± 415 ng/mL
same,Tmax,[1]; [9],4.98 min
same,clearance,"[1]; female, FVB/NJ, mouse, plasma, iv, 10 mg/kg, read-out: CI (clearance) (converted)",154 mL/min/kg
same,half-life,"[1]; female, FVB/NJ, mouse, plasma, iv, 10 mg/kg, read-out: t1/2 (converted)",34.2 min
same,AUC(0-inf),[1]; [10],2600 ng·h/mL
same,AUC(0-t),[1]; [10],2600 ± 374 ng·h/mL
same,Cmax,[1]; [10],2950 ± 1240 ng/mL
same,Tmax,[1]; [10],10 min
same,bioavailability,"[1]; female, FVB/NJ, mouse, plasma, po, 50 mg/kg, plasma, po, 50 mg/kg, read-out: F (oral bioavailability)",~50%
same,half-life,"[1]; female, FVB/NJ, mouse, plasma, po, 50 mg/kg, read-out: t1/2 (converted)",58.2 min
same,AUC(0-t),"[1]; female, FVB/NJ, mouse, brain, ip, 30 mg/kg, AUC from 0.25 to 4 h",740 ± 32 ng·h/mL
same,AUC(0-t),"[1]; female, FVB/NJ, mouse, brain, iv, 10 mg/kg, AUC from 0.25 to 4 h",738 ± 89 ng·h/mL
same,AUC(0-t),"[1]; female, FVB/NJ, mouse, brain, po, 50 mg/kg, AUC from 0.5 to 4 h",416 ± 33 ng·h/mL
same,CI (clearance),"[1]; plasma, ip, 30 mg/kg",154.3 mL/min/kg
same,F,"[1]; plasma, ip, 30 mg/kg",128%
same,V,"[1]; plasma, ip, 30 mg/kg",7.875 L/kg
same,F,"[1]; plasma, iv, 10 mg/kg",100%
same,V,"[1]; plasma, iv, 10 mg/kg",7.669 L/kg
same,V,"[1]; plasma, po, 50 mg/kg",13.012 L/kg
same,"cell survival, protection relative to TGF-β1",[2],better protection than TGF-β1
same,average numbers of dystrophic neurites per neuron,"[3]; 5 μM Aβ, 48 h",markedly reduced
same,LD50,"[4]; rat hepatocytes, MTT",greater than 250 μM
O=C(NC1CCCCC1)N(C/C=C/c1ccc(F)cc1)CC1CCNCC1 [SRI-011382],"cell survival, protection","[2]; 1 μM, 5 μM Aβ",slightly lower protection
same,"cell survival, protection relative to TGF-β","[2]; 3 μM, TGF-β 1 ng/ml",better protection than TGF-β
same,Aβ-induced cell death,"[2]; Aβ 24 h, added 2 h before Aβ",inhibit Aβ-induced cell death
same,"cell survival, protection relative to TGF-β1",[2],better protection than TGF-β1
same,Aβ-induced increase in neurite curvature (mean differential curvature),[3],prevented
same,Aβ-induced tortuosity,"[3]; 3 μM compound, 5 μM Aβ, 48 h",markedly reduced
same,average numbers of dystrophic neurites per neuron,"[3]; 5 μM Aβ, 48 h",markedly reduced
same,cytotoxicity in rat hepatocytes,"[4]; rat, 50 μM",cytotoxic at 50 μM

# From patent publication US9796674B2, “Benzyl urea derivatives for activating TGF-beta signaling” (THE BOARD OF TRUSTEES OF THE LELAND STANFORD JUNIOR …, priority 2013, dated 2017)
